Reference: the supplement of paper PMC10307832

Key:
Experiment in all cases: relative viability (nuclei count vs DMSO), 5 days (fraction); higher = more cells survive
Shikonin + Tozasertib = compound: CC(C)=CC[C@@H](O)C1=CC(=O)c2c(O)ccc(O)c2C1=O [Shikonin] + Cc1cc(Nc2cc(N3CCN(C)CC3)nc(Sc3ccc(NC(=O)C4CC4)cc3)n2)n[nH]1 [Tozasertib] (partner 0.1 µM)
How it was run: (§1)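 For relative viability, nuclei counts in treated wells were divided by those in vehicle wells. Lung cancer cell lines had been pin-tool dosed in 1536-well plates the day after seeding and cultured for 5 days, then fixed and stained in one step (final 0.05% Triton X-100, 1% formaldehyde, 1 ug/ml Hoechst) and imaged at 4×. Doses were one drug alone or a fixed anchor-drug dose plus five library-drug doses (not always all listed) in √10 steps, and values are duplicate-plate medians.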

[1] = compound: CC(C)N(CCCNC(=O)Nc1ccc(C(C)(C)C)cc1)C[C@H]1O[C@@H](n2ccc3c(N)ncnc32)[C@H](O)[C@@H]1O + CC(=O)c1c(C)c2cnc(Nc3ccc(N4CCNCC4)cn3)nc2n(C2CCCC2)c1=O [Palbociclib] (partner 0.5 µM)
How it was run: as §1

[2] = compound: CC(C)N(CCCNC(=O)Nc1ccc(C(C)(C)C)cc1)C[C@H]1O[C@@H](n2ccc3c(N)ncnc32)[C@H](O)[C@@H]1O + CC1(C)CCC(c2ccc(Cl)cc2)=C(CN2CCN(c3ccc(C(=O)NS(=O)(=O)c4ccc(N[C@H](CCN5CCOCC5)CSc5ccccc5)c(S(=O)(=O)C(F)(F)F)c4)cc3)CC2)C1 [Navitoclax] (partner 0.5 µM)
How it was run: as §1

[3] = compound: CC(C)N(CCCNC(=O)Nc1ccc(C(C)(C)C)cc1)C[C@H]1O[C@@H](n2ccc3c(N)ncnc32)[C@H](O)[C@@H]1O + C[C@]1(O)C[C@@H](c2nc(-c3ccc4ccc(-c5ccccc5)nc4c3)c3c(N)nccn32)C1 [Linsitinib] (partner 1 µM)
How it was run: as §1

| Cell Line | relative viability (Shikonin + Tozasertib; first compound 0.01 µM) | relative viability (Shikonin + Tozasertib; first compound 0.1 µM) | relative viability (Shikonin + Tozasertib; first compound 0.3162 µM) | relative viability (Shikonin + Tozasertib; first compound 1 µM) | relative viability ([1]; first compound 0.08 µM) | relative viability ([1]; first compound 0.253 µM) | relative viability ([1]; first compound 0.8 µM) | relative viability ([1]; first compound 2.53 µM) | relative viability ([1]; first compound 8 µM) | relative viability ([2]; first compound 0.08 µM) | relative viability ([2]; first compound 0.253 µM) | relative viability ([2]; first compound 0.8 µM) | relative viability ([2]; first compound 2.53 µM) | relative viability ([2]; first compound 8 µM) | relative viability ([3]; first compound 0.08 µM) | relative viability ([3]; first compound 0.253 µM) | relative viability ([3]; first compound 0.8 µM) | relative viability ([3]; first compound 2.53 µM) | relative viability ([3]; first compound 8 µM) |
| --- | --- | --- | --- | --- | --- | --- | --- | --- | --- | --- | --- | --- | --- | --- | --- | --- | --- | --- | --- |
| COR-L23 | 0.202 | 0.197 | 0.171 | 0.149 | 0.302 | 0.296 | 0.265 | 0.34 | 0.304 | 0.977 | 0.919 | 0.982 | 1.01 | 0.963 | 0.837 | 0.934 | 0.916 | 1.04 | 0.897 |
| NCI-H2126 | 0.91 | 0.967 | 0.869 | 0.846 | 0.358 | 0.366 | 0.355 | 0.378 | 0.371 | 0.887 | 0.825 | 0.851 | 0.848 | 0.776 | 0.713 | 0.674 | 0.743 | 0.749 | 0.676 |
| LC-2-ad | 0.486 | 0.392 | 0.485 | 0.435 | 0.496 | 0.463 | 0.495 | 0.51 | 0.484 | 0.612 | 0.409 | 0.435 | 0.458 | 0.462 | 0.886 | 0.856 | 0.818 | 0.79 | 0.824 |
| NCI-H1915 | 0.444 | 0.498 | 0.454 | 0.482 | 0.517 | 0.543 | 0.517 | 0.533 | 0.525 | 0.782 | 0.778 | 0.781 | 0.768 | 0.697 | 1.13 | 1.15 | 1.08 | 1.06 | 1.03 |
| NCI-H1793 | 0.353 | 0.322 | 0.332 | 0.498 | 0.295 |  | 0.292 | 0.38 | 0.303 | 0.487 |  | 0.393 | 0.505 | 0.357 | 0.818 |  | 0.747 | 0.86 | 0.784 |
| NCI-H2085 | 0.758 | 0.829 | 0.868 | 0.801 | 0.47 | 0.48 | 0.524 | 0.547 | 0.481 | 1.11 | 1.11 | 1.18 | 1.33 | 1.15 | 0.912 | 0.949 | 0.805 | 0.958 | 0.943 |
| COR-L 105 | 0.254 | 0.318 | 0.327 | 0.366 | 0.402 | 0.397 | 0.414 | 0.434 | 0.378 | 0.745 | 0.776 | 0.886 | 0.931 | 0.645 | 0.805 | 1.18 | 1.07 | 0.727 | 0.896 |
| SW 1573 | 0.194 | 0.24 | 0.188 | 0.0571 | 0.377 | 0.431 | 0.419 | 0.401 | 0.336 | 1.04 | 1.06 | 1.09 | 1.15 | 1.09 | 0.603 | 0.872 | 0.848 | 0.976 | 0.825 |
| LXF-289 | 0.212 | 0.183 | 0.209 | 0.196 | 0.705 | 0.591 | 0.6 | 0.656 | 0.652 | 1 | 0.969 | 0.957 | 0.988 | 0.854 | 0.994 | 1.03 | 0.951 | 1.01 | 0.928 |
| RERF-LC-KJ | 0.55 | 0.44 | 0.499 | 0.388 | 1.01 | 1.07 | 1.18 | 1.17 | 1.07 | 0.717 | 1.06 | 1.03 | 0.931 | 0.822 | 0.85 | 0.93 | 0.895 | 0.897 | 0.794 |
| NCI-H727 | 1.64 | 0.672 | 0.634 | 0.697 | 0.694 | 0.578 | 0.769 | 0.82 | 0.62 | 0.416 | 0.389 | 0.499 | 0.534 | 0.506 | 0.333 | 0.281 | 0.286 | 0.359 | 0.209 |
| NCI-H1666 | 0.622 | 0.636 | 0.665 | 0.522 | 0.64 | 0.634 | 0.659 | 0.65 | 0.656 | 0.946 | 0.912 | 1.03 | 0.934 | 0.953 | 0.794 | 0.925 | 0.859 | 0.85 | 0.781 |
| NCI-H2087 | 0.307 | 0.254 | 0.198 | 0.202 | 0.29 | 0.235 | 0.276 | 0.203 | 0.269 | 1.04 | 1.11 | 0.896 | 1.14 | 0.989 | 1.06 | 1.14 | 0.998 | 1.18 | 0.965 |
| NCI-H1734 | 0.288 | 0.284 | 0.302 | 0.161 | 0.328 | 0.385 | 0.353 | 0.192 | 0.365 | 0.784 | 0.86 | 0.71 | 0.856 | 0.752 | 0.833 | 0.862 | 0.88 | 0.901 | 0.874 |
| NCI-H2228 | 0.177 | 0.273 | 0.234 | 0.212 | 0.789 | 0.56 | 0.643 | 0.77 | 0.701 | 1.1 |  | 0.916 | 1.32 | 0.711 | 0.817 |  | 0.665 | 0.625 | 0.554 |
| EMC-BAC-2 | 0.279 | 0.283 | 0.323 | 0.267 | 0.507 | 0.499 | 0.512 | 0.502 | 0.485 | 1.14 | 1.15 | 1.13 | 1.14 | 1.08 | 0.764 | 0.835 | 0.794 | 0.806 | 0.804 |
| NCI-H2009 | 0.747 | 0.774 | 0.815 | 0.56 | 0.148 | 0.198 | 0.184 | 0.174 | 0.255 | 1.19 | 1.17 | 1.19 | 1.17 | 1.13 | 1.18 | 1.21 | 1.18 | 1.13 | 0.958 |
